The target in test [1] is T1, Dual specificity mitogen-activated protein kinase kinase 4 (Homo sapiens) (UniProt P45985).
T1 sequence (whole entry): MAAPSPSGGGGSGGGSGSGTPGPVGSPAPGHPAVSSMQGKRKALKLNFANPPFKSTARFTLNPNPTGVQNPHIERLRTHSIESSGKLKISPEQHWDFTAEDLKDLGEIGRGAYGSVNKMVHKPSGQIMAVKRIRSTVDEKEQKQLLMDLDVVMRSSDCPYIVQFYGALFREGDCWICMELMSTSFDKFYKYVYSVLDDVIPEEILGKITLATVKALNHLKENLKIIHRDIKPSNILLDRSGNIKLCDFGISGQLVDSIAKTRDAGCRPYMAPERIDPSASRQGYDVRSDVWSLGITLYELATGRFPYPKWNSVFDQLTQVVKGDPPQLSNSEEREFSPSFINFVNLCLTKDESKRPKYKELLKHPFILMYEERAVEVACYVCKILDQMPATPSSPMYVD
In words: Selectivity interaction (Kinase panel (KiNativ target engagement assay in Jurkat cells)) EUB0001635a MAP2K4. It counts as cell-based. The note with it: at 1 µM.

Test [2] addresses T2, Uncharacterized serine/threonine-protein kinase SBK3 (Homo sapiens) (UniProt P0C264).
T2 sequence (whole entry): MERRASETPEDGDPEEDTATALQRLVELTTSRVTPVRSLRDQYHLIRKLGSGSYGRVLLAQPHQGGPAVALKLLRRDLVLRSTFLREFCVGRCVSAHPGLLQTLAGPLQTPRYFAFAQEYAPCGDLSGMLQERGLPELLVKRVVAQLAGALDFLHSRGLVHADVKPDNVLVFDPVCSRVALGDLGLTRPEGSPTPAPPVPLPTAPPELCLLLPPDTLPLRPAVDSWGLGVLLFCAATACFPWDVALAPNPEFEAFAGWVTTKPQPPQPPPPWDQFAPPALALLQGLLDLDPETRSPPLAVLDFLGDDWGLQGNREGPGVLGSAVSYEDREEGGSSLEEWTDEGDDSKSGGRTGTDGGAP
The experiment in a line: Selectivity interaction (KinomeScan (DiscoverX)) EUB0000607a SBK3. Conditions: at 10 µM.

The target of test [3] is Serine/threonine-protein kinase WNK1 (Homo sapiens) (UniProt Q9H4A3). The experiment in a line: Selectivity interaction (Kinase panel (DSF assay)) EUB0001558a WNK1. A general note: Differential scanning fluorimetry follows unfolding on heating by fluorescence.
Serine/threonine-protein kinase WNK1 (Homo sapiens), sequence (Q9H4A3 whole entry, looked up): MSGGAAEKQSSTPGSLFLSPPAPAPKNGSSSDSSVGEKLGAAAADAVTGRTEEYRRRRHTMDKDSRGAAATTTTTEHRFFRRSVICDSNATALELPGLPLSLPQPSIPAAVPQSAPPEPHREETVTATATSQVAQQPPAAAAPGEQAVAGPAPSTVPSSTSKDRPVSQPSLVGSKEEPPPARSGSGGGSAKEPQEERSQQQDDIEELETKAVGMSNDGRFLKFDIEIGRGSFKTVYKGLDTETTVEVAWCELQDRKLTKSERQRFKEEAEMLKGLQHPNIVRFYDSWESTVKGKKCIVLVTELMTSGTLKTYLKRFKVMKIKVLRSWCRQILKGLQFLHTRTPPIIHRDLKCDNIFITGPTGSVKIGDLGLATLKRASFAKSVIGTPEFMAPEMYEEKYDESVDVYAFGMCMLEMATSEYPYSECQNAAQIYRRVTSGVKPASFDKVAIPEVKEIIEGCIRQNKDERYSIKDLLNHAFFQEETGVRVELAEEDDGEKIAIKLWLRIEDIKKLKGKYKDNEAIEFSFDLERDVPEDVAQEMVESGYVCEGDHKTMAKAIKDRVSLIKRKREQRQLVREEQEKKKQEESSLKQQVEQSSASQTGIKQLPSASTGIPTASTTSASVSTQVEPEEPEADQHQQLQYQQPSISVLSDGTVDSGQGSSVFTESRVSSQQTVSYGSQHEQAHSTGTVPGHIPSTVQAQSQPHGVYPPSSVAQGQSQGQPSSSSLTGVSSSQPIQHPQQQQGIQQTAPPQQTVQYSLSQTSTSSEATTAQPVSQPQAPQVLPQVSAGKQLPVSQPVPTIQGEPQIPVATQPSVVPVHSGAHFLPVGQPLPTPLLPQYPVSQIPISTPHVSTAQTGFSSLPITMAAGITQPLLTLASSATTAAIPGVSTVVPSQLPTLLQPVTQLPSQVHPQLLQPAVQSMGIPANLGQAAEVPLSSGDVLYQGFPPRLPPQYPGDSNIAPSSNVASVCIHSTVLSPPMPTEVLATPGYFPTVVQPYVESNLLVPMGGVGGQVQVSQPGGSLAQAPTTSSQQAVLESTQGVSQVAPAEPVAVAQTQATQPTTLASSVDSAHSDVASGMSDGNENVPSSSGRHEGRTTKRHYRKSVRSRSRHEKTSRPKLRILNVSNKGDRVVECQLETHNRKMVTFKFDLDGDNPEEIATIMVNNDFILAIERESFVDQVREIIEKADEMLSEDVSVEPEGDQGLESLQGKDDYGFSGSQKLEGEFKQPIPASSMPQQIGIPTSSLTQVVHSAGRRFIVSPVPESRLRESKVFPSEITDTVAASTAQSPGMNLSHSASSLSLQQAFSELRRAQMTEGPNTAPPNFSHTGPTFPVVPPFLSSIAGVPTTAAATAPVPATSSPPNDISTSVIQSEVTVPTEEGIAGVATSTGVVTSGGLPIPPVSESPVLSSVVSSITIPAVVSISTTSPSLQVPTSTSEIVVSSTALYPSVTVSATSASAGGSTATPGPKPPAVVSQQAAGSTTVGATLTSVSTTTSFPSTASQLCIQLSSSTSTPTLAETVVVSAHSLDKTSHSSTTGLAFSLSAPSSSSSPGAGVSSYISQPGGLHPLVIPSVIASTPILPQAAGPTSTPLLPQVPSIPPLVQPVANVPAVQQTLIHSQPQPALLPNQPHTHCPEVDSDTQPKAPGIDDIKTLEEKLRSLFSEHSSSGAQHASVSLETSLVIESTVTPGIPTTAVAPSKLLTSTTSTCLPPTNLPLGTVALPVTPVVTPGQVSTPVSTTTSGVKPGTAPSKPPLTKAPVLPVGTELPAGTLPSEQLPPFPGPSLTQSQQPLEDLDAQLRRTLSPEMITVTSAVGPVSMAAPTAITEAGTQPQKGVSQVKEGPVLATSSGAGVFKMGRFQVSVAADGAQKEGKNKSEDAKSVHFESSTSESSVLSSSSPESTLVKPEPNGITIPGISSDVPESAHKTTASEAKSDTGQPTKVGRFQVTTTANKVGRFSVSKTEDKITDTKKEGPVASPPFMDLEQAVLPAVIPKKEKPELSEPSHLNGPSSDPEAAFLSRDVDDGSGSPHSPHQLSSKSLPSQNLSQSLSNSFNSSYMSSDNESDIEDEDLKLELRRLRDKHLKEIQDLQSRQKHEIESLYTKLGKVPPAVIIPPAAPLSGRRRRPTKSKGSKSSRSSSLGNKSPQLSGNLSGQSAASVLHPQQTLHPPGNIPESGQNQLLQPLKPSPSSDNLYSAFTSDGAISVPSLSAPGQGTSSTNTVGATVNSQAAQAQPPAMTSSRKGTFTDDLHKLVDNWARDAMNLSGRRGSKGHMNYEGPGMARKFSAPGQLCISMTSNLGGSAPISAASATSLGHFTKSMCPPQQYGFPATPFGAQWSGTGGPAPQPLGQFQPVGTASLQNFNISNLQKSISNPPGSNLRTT
Test [4] concerns the target T3, Serine/threonine-protein kinase Nek5 (Homo sapiens) (UniProt Q6P3R8).
T3 sequence (whole entry): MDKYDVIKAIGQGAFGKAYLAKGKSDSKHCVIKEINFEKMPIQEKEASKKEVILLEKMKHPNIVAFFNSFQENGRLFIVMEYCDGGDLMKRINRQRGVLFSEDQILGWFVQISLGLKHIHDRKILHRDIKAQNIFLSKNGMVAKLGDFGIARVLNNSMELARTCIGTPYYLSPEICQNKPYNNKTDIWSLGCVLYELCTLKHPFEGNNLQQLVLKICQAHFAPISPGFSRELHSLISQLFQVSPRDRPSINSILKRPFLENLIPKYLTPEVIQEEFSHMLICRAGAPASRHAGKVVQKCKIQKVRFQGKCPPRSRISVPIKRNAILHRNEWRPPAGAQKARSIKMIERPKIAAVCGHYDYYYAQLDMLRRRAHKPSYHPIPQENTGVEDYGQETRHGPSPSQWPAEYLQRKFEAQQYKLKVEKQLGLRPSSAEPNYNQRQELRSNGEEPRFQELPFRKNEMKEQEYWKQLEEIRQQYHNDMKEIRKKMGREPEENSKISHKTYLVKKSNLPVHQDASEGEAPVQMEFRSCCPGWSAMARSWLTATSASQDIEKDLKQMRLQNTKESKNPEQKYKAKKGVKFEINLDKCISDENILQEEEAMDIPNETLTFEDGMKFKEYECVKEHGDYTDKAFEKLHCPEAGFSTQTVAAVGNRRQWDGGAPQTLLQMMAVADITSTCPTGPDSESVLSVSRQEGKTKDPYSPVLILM
In words: Selectivity interaction (KinomeScan (DiscoverX)) EUB0001079a NEK5. Conditions: at 1 µM.

Test [5] addresses T4, Serine/threonine-protein kinase LATS1 (Homo sapiens) (UniProt O95835).
T4 sequence (whole entry): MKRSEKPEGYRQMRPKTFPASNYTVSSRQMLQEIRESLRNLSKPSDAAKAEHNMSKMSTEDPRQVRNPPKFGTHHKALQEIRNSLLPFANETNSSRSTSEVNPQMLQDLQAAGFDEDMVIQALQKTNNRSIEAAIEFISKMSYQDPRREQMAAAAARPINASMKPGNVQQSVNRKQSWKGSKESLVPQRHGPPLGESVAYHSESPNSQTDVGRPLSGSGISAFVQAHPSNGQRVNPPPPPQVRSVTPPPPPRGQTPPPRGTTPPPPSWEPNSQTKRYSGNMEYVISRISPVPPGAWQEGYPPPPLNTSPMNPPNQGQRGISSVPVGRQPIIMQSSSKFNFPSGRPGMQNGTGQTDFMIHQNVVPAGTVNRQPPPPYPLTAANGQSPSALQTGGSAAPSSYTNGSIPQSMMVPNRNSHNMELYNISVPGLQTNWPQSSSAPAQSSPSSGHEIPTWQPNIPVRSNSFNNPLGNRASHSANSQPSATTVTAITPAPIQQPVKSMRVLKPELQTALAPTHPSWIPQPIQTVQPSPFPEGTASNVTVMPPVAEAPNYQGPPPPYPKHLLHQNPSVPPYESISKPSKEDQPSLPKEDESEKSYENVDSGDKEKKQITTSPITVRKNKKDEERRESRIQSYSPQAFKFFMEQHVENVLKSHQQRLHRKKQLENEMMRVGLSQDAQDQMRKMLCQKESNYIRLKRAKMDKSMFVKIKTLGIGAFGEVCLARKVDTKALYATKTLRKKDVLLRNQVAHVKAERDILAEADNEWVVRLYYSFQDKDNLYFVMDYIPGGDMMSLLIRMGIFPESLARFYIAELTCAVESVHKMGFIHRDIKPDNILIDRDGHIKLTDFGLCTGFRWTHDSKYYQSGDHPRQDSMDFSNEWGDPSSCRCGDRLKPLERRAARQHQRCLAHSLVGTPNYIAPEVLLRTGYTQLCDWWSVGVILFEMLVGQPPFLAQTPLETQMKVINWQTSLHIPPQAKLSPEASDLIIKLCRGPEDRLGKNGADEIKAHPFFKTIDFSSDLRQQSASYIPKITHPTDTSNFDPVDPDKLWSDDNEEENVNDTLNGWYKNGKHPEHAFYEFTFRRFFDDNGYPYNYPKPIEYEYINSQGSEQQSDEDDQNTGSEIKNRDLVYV
The experiment in a line: Selectivity interaction (ActivX KiNativ screen (kinase selectivity in THP-1 cell lysates)) EUB0000639a LATS1. In kind it is subcellular. The note with it: lysate, at 0.01 µM.

Molecule `C=CC(=O)Nc1ccc(C(=O)Nc2[nH]nc3c2CN(C(=O)N[C@H](CN(C)C)c2ccccc2)C3(C)C)cc1` gave a % of engagement in test [1] of 3.9%.

Consider `CNC(=O)Nc1ccc(-c2nc(N3CC4CCC(C3)O4)c3cnn(C4CCC5(CC4)OCCO5)c3n2)cc1`, for which the % of control in test [2] was 96%. In test [3], `CC(C)(O)[C@H](F)CN1Cc2cc(NC(=O)c3cnn4cccnc34)c(N3CCOCC3)cc2C1=O` came in with a dTM of -0.2 K. Regarding `Nc1cnc(N2CCc3cc(S(=O)(=O)Nc4c(F)cc(Cl)cc4F)cc(N4CCCC4=O)c32)nc1` [TP-020n], the % of control in test [4] worked out at 100%.

The molecule `CC[C@@H]1[C@H](F)C(=O)N[C@@H]1COc1nccc2cc(C(N)=O)c(OC)cc12` [ZIMLOVISERTIB] displayed a % of inhibition in test [5] of 15.8%.

These data come from ChEMBL document CHEMBL5465560, “Selectivity Literature for EUbOPEN Chemogenomic Library” (2024).
